The text below walks through data of patent US9796700B2 (Celgene CAR LLC, priority 2013, dated 2017).

Molecules are shown by their SMILES.

This assay deals with Erk1 (Homo sapiens (Human), UniProt P27361). As to the kind of experiment: Protein Mass Modification Assay (intact protein MALDI). The assay is classed as binding. As for the experimental part: Protein Mass Modification Assay
Intact protein: Erk1 from Millipore (Cat. No. 14-439) was incubated for 60 min. at room temperature with a 10-fold excess of test compound to protein. 4 μL aliquots of the resulting mixture were diluted with 15 μL of 0.2% TFA prior to micro C4 ZipTipping directly onto the MALDI target using sinapinic acid as the desorption matrix (10 mg/ml in 0.1% TFA:Acetonitrile 50:50, v/v). The centroid mass of the target protein in the control sample was compared with the centroid mass of the target protein incubated with compound. A shift in the centroid mass of the treated protein compared to the untreated protein was divided by the molecular weight of the compound. This number corresponds to the percentage of modified protein after one hour incubation. Results from this assay are reported in Table A under the column “ERK1 Mass Mod (%).”

Erk1, sequence (P27361 whole entry, looked up): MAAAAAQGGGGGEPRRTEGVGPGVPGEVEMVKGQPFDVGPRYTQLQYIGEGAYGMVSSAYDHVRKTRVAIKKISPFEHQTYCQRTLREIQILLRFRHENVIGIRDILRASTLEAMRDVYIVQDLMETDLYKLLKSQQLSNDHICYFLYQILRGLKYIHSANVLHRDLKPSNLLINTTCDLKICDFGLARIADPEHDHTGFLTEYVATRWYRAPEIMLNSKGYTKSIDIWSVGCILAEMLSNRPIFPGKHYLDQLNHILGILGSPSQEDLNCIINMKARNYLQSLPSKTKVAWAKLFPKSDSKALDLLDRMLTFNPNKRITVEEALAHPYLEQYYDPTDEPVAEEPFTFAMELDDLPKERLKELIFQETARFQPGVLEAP

For the molecule `C=CC(=O)Nc1ccccc1Nc1nc(Nc2ccc(N3CCNCC3)cc2OC(F)F)ncc1Cl` [Compound I-142, N-(2-((5-chloro-2-((2-(difluoromethoxy)-4-(piperazin-1-yl)phenyl)amino)pyrimidin-4-yl)amino)phenyl)acrylamide], the “ERK1 Mass Mod (%)” value is “E (provided a mass modification of ≧70%)”.
With `C=C(C)S(=O)(=O)Nc1ccccc1Nc1nc(Nc2cc(C(C)=O)ccc2C)ncc1C(F)(F)F` [Compound I-97, N-(2-((2-((5-acetyl-2-methylphenyl)amino)-5-(trifluoromethyl)pyrimidin-4-yl)amino)phenyl)prop-1-ene-2-sulfonamide], the “ERK1 Mass Mod (%)” value is given as “G (proived a mass modification ≦30%)”.
In the case of `C=CC(=O)Nc1ccccc1Nc1nc(N[C@@H]2CCC[C@H](C(=O)NOCCO)C2)ncc1C(F)(F)F` (racemic) [Compound I-4, Rac-cis-3-((4-((2-acrylamidophenyl)amino)-5-(trifluoromethyl)pyrimidin-2-yl)amino)-N-(2-hydroxyethoxy)cyclohexanecarboxamide], the “ERK1 Mass Mod (%)” value is “F (provided a mass modification of 31-69%)”.
In the case of `C=CC(=O)Nc1ccccc1Nc1nc(Nc2cc(C(=O)NCCO)c(F)cc2C)ncc1C(F)(F)F` [Compound I-81, 5-((4-((2-Acrylamidophenyl)amino)-5-(trifluoromethyl)pyrimidin-2-yl)amino)-2-fluoro-N-(2-hydroxyethyl)-4-methylbenzamide], the “ERK1 Mass Mod (%)” value is reported as “E (provided a mass modification of ≧70%)”.
For `C#CC(=O)Nc1cc(C)ccc1Nc1nc(Nc2cc(OC)ncc2C)ncc1C(F)(F)F` [Compound I-345, N-(2-((2-((2-methoxy-5-methylpyridin-4-yl)amino)-5-(trifluoromethyl)pyrimidin-4-yl)amino)-5-methylphenyl)propiolamide], the “ERK1 Mass Mod (%)” value is “E (provided a mass modification of ≧70%)”.
For `C=CC(=O)Nc1cc(C)ccc1Nc1nc(Nc2cc(OC)ncc2Cl)ncc1C(F)(F)F` [Compound I-351, N-(2-((2-((5-chloro-2-methoxypyridin-4-yl)amino)-5-(trifluoromethyl)pyrimidin-4-yl)amino)-5-methylphenyl)acrylamide], the “ERK1 Mass Mod (%)” value is on record as “F (provided a mass modification of 31-69%)”.
Consider `C=CC(=O)Nc1cc(C)ccc1Nc1nc(Nc2cc(C(=O)NC)c(F)cc2C)ncc1Cl` [Compound I-233, 5-((4-((2-acrylamido-4-methylphenyl)amino)-5-chloropyrimidin-2-yl)amino)-2-fluoro-N,4-dimethylbenzamide], for which the “ERK1 Mass Mod (%)” value is on record as “E (provided a mass modification of ≧70%)”.
With `C=CC(=O)Nc1ccccc1Nc1nc(N[C@H]2CCCN(C=O)C2)ncc1Cl` [Compound I-122, (S)—N-(2-((5-chloro-2-((1-formylpiperidin-3-yl)amino)pyrimidin-4-yl)amino)phenyl)acrylamide], the “ERK1 Mass Mod (%)” value is listed as “E (provided a mass modification of ≧70%)”.
The same measure for `C=CC(=O)Nc1cc(C)ccc1Nc1nc(Nc2cc(C(=O)NCCO)c(F)cc2C)ncc1Cl` [Compound I-234, 5-((4-((2-acrylamido-4-methylphenyl)amino)-5-chloropyrimidin-2-yl)amino)-2-fluoro-N-(2-hydroxyethyl)-4-methylbenzamide]: “F (provided a mass modification of 31-69%)”; for `C=CC(=O)Nc1cc(C)ccc1Nc1nc(Nc2ccncc2C)ncc1Cl` [Compound I-236, N-(2-((5-chloro-2-((3-methylpyridin-4-yl)amino)pyrimidin-4-yl)amino)-5-methylphenyl)acrylamide]: “E (provided a mass modification of ≧70%)”; for `C=CC(=O)Nc1ccccc1Nc1nc(Nc2ccc(N3CCC[C@@H]3C(N)=O)cc2C#N)ncc1Cl` [Compound I-179, (R)-1-(4-((4-((2-acrylamidophenyl)amino)-5-chloropyrimidin-2-yl)amino)-3-cyanophenyl)pyrrolidine-2-carboxamide]: “E (provided a mass modification of ≧70%)”.
The same measure for `C=CC(=O)Nc1cc(C)ccc1Nc1nc(Nc2cc(OC)nc(N(C)C3CC3)c2)ncc1C(F)(F)F` [Compound I-342, N-(2-((2-((2-(cyclopropyl(methyl)amino)-6-methoxypyridin-4-yl)amino)-5-(trifluoromethyl)pyrimidin-4-yl)amino)-5-methylphenyl)acrylamide]: “E (provided a mass modification of ≧70%)”; for `C=CC(=O)Nc1cc(C)ccc1Nc1nc(Nc2nc(OC)ncc2OC)ncc1C(F)(F)F` [Compound I-349, N-(2-((2-((2,5-dimethoxypyrimidin-4-yl)amino)-5-(trifluoromethyl)pyrimidin-4-yl)amino)-5-methylphenyl)acrylamide]: “E (provided a mass modification of ≧70%)”.
For the molecule `C=CC(=O)Nc1ccccc1Nc1nc(Nc2ccc3c(c2OC)CCCC(=O)N3CCCN)ncc1Cl` [Compound I-148, N-(2-((2-((1-(3-aminopropyl)-6-methoxy-2-oxo-2,3,4,5-tetrahydro-1H-benzo[b]azepin-7-yl)amino)-5-chloropyrimidin-4-yl)amino)phenyl)acrylamide], the “ERK1 Mass Mod (%)” value is “E (provided a mass modification of ≧70%)”.
Turning to `C=CC(=O)Nc1ccccc1Nc1nc(Nc2ccc(N3CCOCC3)cc2OC)ncc1C(C)=O` [Compound I-273, N-(2-(5-acetyl-2-(2-methoxy-4-morpholinophenylamino)pyrimidin-4-ylamino)phenyl) acrylamide], the “ERK1 Mass Mod (%)” value is on record as “G (proived a mass modification ≦30%)”.
Regarding `C=CS(=O)(=O)Nc1cc(C)ccc1Nc1nc(Nc2cc(OC)ncc2C)ncc1C(F)(F)F` [Compound I-333, N-(2-((2-((2-methoxy-5-methylpyridin-4-yl)amino)-5-(trifluoromethyl)pyrimidin-4-yl)amino)-5-methylphenyl)ethenesulfonamide], the “ERK1 Mass Mod (%)” value is listed as “E (provided a mass modification of ≧70%)”.
The result for `C=CC(=O)Nc1ccccc1Nc1nc(N[C@@H]2CCC[C@H](C(=O)NOC)C2)ncc1Cl` (racemic) [Compound I-203, Rac-cis-3-((4-((2-acrylamidophenyl)amino)-5-chloropyrimidin-2-yl)amino)-N-methoxy-cyclohexanecarboxamide] reads “E (provided a mass modification of ≧70%)”; that for `C=CC(=O)Nc1cc(F)ccc1Nc1nc(Nc2cc(C(N)=O)ccc2C#N)ncc1Cl` [Compound I-207, 3-(4-(2-acrylamido-4-fluorophenylamino)-5-chloropyrimidin-2-ylamino)-4-cyanobenzamide], “E (provided a mass modification of ≧70%)”; that for `C=CC(=O)Nc1cc(OC)ccc1Nc1nc(Nc2ccc(N3CCC[C@@H]3C(N)=O)cc2C#N)ncc1Cl` [Compound I-180, (R)-1-(4-((4-((2-acrylamido-4-methoxyphenyl)amino)-5-chloropyrimidin-2-yl)amino)-3-cyanophenyl)pyrrolidine-2-carboxamide], “E (provided a mass modification of ≧70%)”.
In the case of `COc1cc(N2CCOCC2)ccc1Nc1ncc(C(C)=O)c(Nc2ccccc2N)n1` [Compound I-313, 1-(4-((2-aminophenyl)amino)-2-((2-methoxy-4-morpholinophenyl)amino)pyrimidin-5-yl)ethanone], the “ERK1 Mass Mod (%)” value was “G (proived a mass modification ≦30%)”.
In the case of `C=CC(=O)Nc1ccccc1Nc1nc(N[C@H]2CCCN(C(=O)C=O)C2)ncc1C(F)(F)F` [Compound I-52, (S)—N-(2-((2-((1-(2-Oxoacetyl)piperidin-3-yl)amino)-5-(trifluoromethyl)pyrimidin-4-yl)amino)phenyl)acrylamide], the “ERK1 Mass Mod (%)” value was “E (provided a mass modification of ≧70%)”.
The same measure for `C=CC(=O)Nc1ccccc1Nc1nc(N[C@H]2CCCN(C(=O)[C@H](C)O)C2)ncc1Cl` [Compound I-138, N-(2-((5-chloro-2-(((S)-1-((S)-2-hydroxypropanoyl)piperidin-3-yl)amino)pyrimidin-4-yl)amino)phenyl)acrylamide]: “E (provided a mass modification of ≧70%)”; for `C=CC(=O)Nc1ccccc1Nc1nc(Nc2cc(C(N)=O)c(OCCCNC(=O)C#CC)cc2C)ncc1Cl` [Compound I-305, 5-((4-((2-acrylamidophenyl)amino)-5-chloropyrimidin-2-yl)amino)-2-(3-(but-2-ynamido)propoxy)-4-methylbenzamide]: “E (provided a mass modification of ≧70%)”; for `C=CC(=O)Nc1ccccc1Nc1nc(N[C@H]2CCCN(C(=O)[C@@H](O)CO)C2)ncc1C(F)(F)F` [Compound I-50, N-(2-((2-(((S)-1-((S)-2,3-Dihydroxypropanoyl)piperidin-3-yl)amino)-5-(trifluoromethyl)pyrimidin-4-yl)amino)phenyl)acrylamide]: “E (provided a mass modification of ≧70%)”.
The result for `C=CC(=O)Nc1cc(C)ccc1Nc1nc(Nc2nc(OC)ncc2C#N)ncc1C(F)(F)F` [Compound I-346, N-(2-((2-((5-cyano-2-methoxypyrimidin-4-yl)amino)-5-(trifluoromethyl)pyrimidin-4-yl)amino)-5-methylphenyl)acrylamide] reads “E (provided a mass modification of ≧70%)”; that for `C=CC(=O)Nc1ccccc1Nc1nc(Nc2cc(C(=O)NC)c(F)cc2C)ncc1Cl` [Compound I-231, 5-((4-((2-acrylamidophenyl)amino)-5-chloropyrimidin-2-yl)amino)-2-fluoro-N,4-dimethylbenzamide], “E (provided a mass modification of ≧70%)”.
The result for `C=CC(=O)Nc1cc(C)c(F)cc1Nc1nc(Nc2cc(OC)ncc2C)ncc1C(F)(F)F` [Compound I-366, N-(4-fluoro-2-((2-((2-methoxy-5-methylpyridin-4-yl)amino)-5-(trifluoromethyl)pyrimidin-4-yl)amino)-5-methylphenyl)acrylamide] reads “E (provided a mass modification of ≧70%)”.
